Drawing on PubChem BioAssay AID588660 (The Scripps Research Institute Molecular Screening Center, 2011), this text covers inhibition for one compound.

The source made the active and inactive calls.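 The calls were made as follows: active = KLF5 protein level shifted at least 30% from solvent-only control, either down or up; inactive = shift under 30% either way.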

This test addresses Krueppel-like factor 5 (Homo sapiens) (UniProt Q13887). The test is described as follows: change in KLF5 protein levels, late-stage follow-up, counter-screen for KLF5 inhibitor project, western blot, chemiluminescence, HT29 colorectal cells (AID 588660). The conditions noted are these: 24 h, at 10 µM, stronger effect = higher value. (In general: The purpose of a counterscreen is to sort out artefacts and off-target activity.)

Usually inhibition stands for how much of the control response was suppressed.

Sequence of Krueppel-like factor 5 (Homo sapiens) (Q13887 whole entry, looked up): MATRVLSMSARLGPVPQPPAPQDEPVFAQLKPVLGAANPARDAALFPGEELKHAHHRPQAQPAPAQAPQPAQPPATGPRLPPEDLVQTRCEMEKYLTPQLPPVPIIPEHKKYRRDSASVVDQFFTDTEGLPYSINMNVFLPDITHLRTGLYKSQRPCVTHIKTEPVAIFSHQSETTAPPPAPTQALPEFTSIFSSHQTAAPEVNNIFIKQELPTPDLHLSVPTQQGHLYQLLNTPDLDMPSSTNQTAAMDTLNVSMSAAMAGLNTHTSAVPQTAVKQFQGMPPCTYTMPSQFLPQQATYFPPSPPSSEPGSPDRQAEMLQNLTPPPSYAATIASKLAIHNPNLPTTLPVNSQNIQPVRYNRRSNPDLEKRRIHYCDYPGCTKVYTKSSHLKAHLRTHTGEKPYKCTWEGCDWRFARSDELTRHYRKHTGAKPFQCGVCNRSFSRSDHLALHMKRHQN

For the compound `CN(C(=O)COC(=O)/C=C/c1cccc([N+](=O)[O-])c1)C1CCS(=O)(=O)C1` (stereo unspecified), the inhibition was 12.8% (inactive).
